Literature values as cited in patent publication US20060247203A1, “Freeze-dried preparation containing methylcobalamin and process for producing the same” (EISAI CO., LTD., priority 2003, published 2006).

Test system: patients with amyotrophic lateral sclerosis
Conditions: ALS patients; methylcobalamin 15 to 50 mg/once daily via intramuscular injection

Structure (SMILES): C/C1=C2/[N-][C@H]([C@H](CC(N)=O)[C@@]2(C)CCC(=O)NC[C@@H](C)OP(=O)([O-])O[C@H]2[C@@H](O)[C@@H](n3cnc4cc(C)c(C)cc43)O[C@@H]2CO)[C@]2(C)N=C(/C(C)=C3N=C(/C=C4N=C1[C@@H](CCC(N)=O)C\4(C)C)[C@@H](CCC(N)=O)[C@]\3(C)CC(N)=O)[C@@H](CCC(N)=O)[C@]2(C)CC(N)=O.[CH3-].[Co+3] [methylcobalamin]
- magnitude of compound muscle action potential: significant increase
- subjective muscle strength: dose-dependent improvement
